Measured values: patent US4251516A, “2-Deoxy-3-O-Demethylfortimicins” (Abbott Laboratories, priority 1979, dated 1981)
Counter-ions that a name gives are not always drawn. Like-named read-outs stand apart in the source and are kept apart here.

Key:
Assay in all cases: two-fold agar dilution MIC, Mueller-Hinton agar
Type in all cases: cell-based
[1] = system: Streptoccocus faecalis 10541; settings: read-out: Minimum Inhibitory Concentration
Experimental: (§1) The in vitro antibiotic activities are determined by a two-fold agar dilution method using Mueller-Hinton agar, 10 ml per Petri dish. The agar is inoculated with one loopful (0.001 ml loop) of a 1:10 dilution of a 24 hour broth culture of the indicated test organism and incubated at 37° C. for 24 hours. Appropriate fortimicins are used as control antibiotics. The activities, listed in the following Table I, minimum inhibitory concentrations(MIC) are expressed in mcg/ml.

[2] = system: Pseudomonas aeruginosa KY 8516; settings: read-out: Minimum Inhibitory Concentration
Experimental: as §1

[3] = system: Pseudomonas aeruginosa KY 8512; settings: read-out: Minimum Inhibitory Concentration
Experimental: as §1

[4] = system: Staphyloccocus aureus Smith; settings: Staphylococcus aureus, read-out: Minimum Inhibitory Concentration
Experimental: as §1

Proteus vulgaris JJ = settings: read-out: Minimum Inhibitory Concentration
Experimental: as §1

Providencia 1577 = settings: read-out: Minimum Inhibitory Concentration
Experimental: as §1

[5] = system: Pseudomonas aeruginosa 27853; settings: read-out: Minimum Inhibitory Concentration
Experimental: as §1

[6] = system: Escherichia coli BL 3676(Res); settings: read-out: Minimum Inhibitory Concentration
Experimental: as §1

Serratia marcescens 4003 = settings: read-out: Minimum Inhibitory Concentration
Experimental: as §1

[7] = system: Pseudomonas aeruginosa BMH #10; settings: read-out: Minimum Inhibitory Concentration
Experimental: as §1

Shigella sonnei 9290 = settings: 37° C., 24 hours, read-out: Minimum Inhibitory Concentration
Experimental: as §1

[8] = system: Klebsiella pneumoniae 10031; settings: read-out: Minimum Inhibitory Concentration
Experimental: as §1

[9] = system: Proteus mirabilis Fin. #9; settings: read-out: Minimum Inhibitory Concentration
Experimental: as §1

[10] = system: Salmonella typhimurium Ed #9; settings: Salmonella enterica, read-out: Minimum Inhibitory Concentration
Experimental: as §1

[11] = system: Enterobacter aerogenes 13048; settings: read-out: Minimum Inhibitory Concentration
Experimental: as §1

Escherichia coli Juhl = settings: read-out: Minimum Inhibitory Concentration
Experimental: as §1

[12] = system: Pseudomonas aeruginosa 209; settings: read-out: Minimum Inhibitory Concentration
Experimental: as §1

[13] = Streptoccocus faecalis 10541, agar dilution, 37° C., 24 hours
[14] = KY8516, Pseudomonas aeruginosa KY 8516, agar dilution, 37° C., 24 hours
[15] = KY8512, Pseudomonas aeruginosa KY 8512, agar dilution, 37° C., 24 hours
[16] = Staphyloccocus aureus Smith, agar dilution, 37° C., 24 hours
[17] = Proteus vulgaris JJ, agar dilution, 37° C., 24 hours
[18] = Providencia 1577, agar dilution, 37° C., 24 hours
[19] = Serratia marcescens 4003, agar dilution, 37° C., 24 hours
[20] = Pseudomonas aeruginosa BMH #10, agar dilution, 37° C., 24 hours
[21] = Klebsiella pneumoniae 10031, agar dilution, 37° C., 24 hours
[22] = Proteus mirabilis Fin. #9, agar dilution, 37° C., 24 hours
[23] = Salmonella typhimurium Ed #9, agar dilution, 37° C., 24 hours
[24] = Klebsiella aerogenes, Enterobacter aerogenes 13048, agar dilution, 37° C., 24 hours
[25] = Escherichia coli Juhl, agar dilution, 37° C., 24 hours
[26] = Pseudomonas aeruginosa 209, agar dilution, 37° C., 24 hours
[27] = Pseudomonas aeruginosa, KY8512, 24 h
[28] = Pseudomonas aeruginosa, 27853, 24 h
[29] = Escherichia coli BL 3676(Res), agar dilution, 37° C., 24 hours

Compound `CC(N)C1CCC(N)C(OC2C(N)CC(O)C(N(C)C(=O)CN)C2O)O1` (stereo not shown) [2-Deoxy-3-O-demethylfortimicin A . 4HCl, 2-Deoxy-3-O-Demethylfortimicin A tetrahydrochloride] has an MIC [1, 13] of 50 µg/mL, an MIC [2, 14] of 100 µg/mL and an MIC [3, 15] of 3.1 µg/mL. For the same compound, the MIC [4, 16] was 0.39 µg/mL, the MIC (Proteus vulgaris JJ; [17]) was 3.1 µg/mL and the MIC (Providencia 1577; [18]) was 1.56 µg/mL. It also gave an MIC ([5]; Pseudomonas aeruginosa 27853, agar dilution, 37° C., 24 hours) of 6.2 µg/mL, an MIC ([6]; Escherichia coli, 24 h) of 12.5 µg/mL and an MIC (Serratia marcescens 4003; [19]) of 3.1 µg/mL. For the same compound, the MIC [7, 20] was 0.78 µg/mL, the MIC (Shigella sonnei 9290) was 12.5 µg/mL and the MIC [8, 21] was 3.1 µg/mL. It also gave an MIC [9, 22] of 3.1 µg/mL, an MIC [10, 23] of 1.56 µg/mL and an MIC [11, 24] of 3.1 µg/mL. The MIC (Escherichia coli Juhl; [25]) was 6.2 µg/mL and the MIC [12, 26] was 100 µg/mL.

Work on `COC1CC(N)C(OC2OC(C(C)N)CCC2N)C(O)C1N(C)C(=O)CN` (stereo not shown) [2-Deoxyfortimicin A . 4 HCl, 2-Deoxyfortimicin A tetrahydrochloride] yielded an MIC [1, 13] of 50 µg/mL, an MIC [2, 14] of 50 µg/mL and an MIC [3, 27] of 12.5 µg/mL. The MIC [4, 16] was 0.78 µg/mL, the MIC (Proteus vulgaris JJ; [17]) was 3.1 µg/mL and the MIC (Providencia 1577; [18]) was 3.1 µg/mL. The MIC [5, 28] was 12.5 µg/mL, the MIC [6, 29] was 25 µg/mL and the MIC (Serratia marcescens 4003; [19]) was 3.1 µg/mL. The MIC [7, 20] was 0.78 µg/mL, the MIC (Shigella sonnei 9290) was 12.5 µg/mL and the MIC [8, 21] was 1.56 µg/mL. The MIC [9, 22] was 6.2 µg/mL, the MIC [10, 23] was 1.56 µg/mL and the MIC [11, 24] was 3.1 µg/mL. The MIC (Escherichia coli Juhl; [25]) was 6.2 µg/mL and the MIC [12, 26] was 100 µg/mL.

Compound `CC(N)C1CCC(N)C(OC2C(N)C(O)C(O)C(N(C)C(=O)CN)C2O)O1` (stereo not shown) [3-O-Demethylfortimicin A . 4HCl, 3-O-demethylfortimicin A tetrahydrochloride] has an MIC [1, 13] of 17 µg/mL, an MIC [2, 14] of 69 µg/mL and an MIC [3, 15] of 2.1 µg/mL. For the same compound, the MIC [4, 16] was 0.54 µg/mL, the MIC (Proteus vulgaris JJ; [17]) was 2.1 µg/mL and the MIC (Providencia 1577; [18]) was 1.1 µg/mL. For the same compound, the MIC [6, 29] was 8.6 µg/mL, the MIC (Serratia marcescens 4003; [19]) was 4.3 µg/mL and the MIC [7, 20] was 0.27 µg/mL. The MIC (Shigella sonnei 9290) was 4.3 µg/mL, the MIC [8, 21] was 1.1 µg/mL and the MIC [9, 22] was 2.1 µg/mL. The MIC [10, 23] was 1.1 µg/mL, the MIC [11, 24] was 2.1 µg/mL and the MIC (Escherichia coli Juhl; [25]) was 2.1 µg/mL. For the same compound, the MIC [12, 26] was 69 µg/mL.

In the case of `COC1C(O)C(N)C(OC2OC(C(C)N)CCC2N)C(O)C1N(C)C(=O)CN` (stereo not shown) [Fortimicin A . 4HCl, fortimicin A tetrahydrochloride], the MIC ([1]; 24 h) is reported as 50 µg/mL, the MIC ([2]; Pseudomonas aeruginosa, KY8516, 24 h) is reported as 100 µg/mL and the MIC [3, 27] is reported as 12.5 µg/mL. The MIC ([4]; 24 h) was 0.78 µg/mL, the MIC (Proteus vulgaris JJ; Proteus vulgaris, 24 h) was 3.1 µg/mL and the MIC (Providencia 1577; Providencia, 1577, 24 h) was 6.2 µg/mL. It also gave an MIC [5, 28] of 12.5 µg/mL, an MIC ([6]; Escherichia coli, 24 h) of 25 µg/mL and an MIC (Serratia marcescens 4003; Serratia marcescens, 4003, 24 h) of 3.1 µg/mL. It also gave an MIC ([7]; Pseudomonas aeruginosa, 24 h) of 0.78 µg/mL, an MIC (Shigella sonnei 9290) of 12.5 µg/mL and an MIC ([8]; Klebsiella pneumoniae, 10031, 24 h) of 3.1 µg/mL. It also gave an MIC ([9]; Proteus mirabilis, 24 h) of 6.2 µg/mL, an MIC ([10]; TYPHIMURIUM, 24 h) of 1.56 µg/mL and an MIC ([11]; Klebsiella aerogenes, 13048, 24 h) of 3.1 µg/mL. For the same compound, the MIC (Escherichia coli Juhl; Escherichia coli, 24 h) was 6.2 µg/mL and the MIC ([12]; Pseudomonas aeruginosa, 209, 24 h) was 100 µg/mL.
